Laboratory results as given in patent US4192871A, “Chemical compounds” (Glaxo Laboratories Limited, priority 1976, dated 1980).
Structures can show the parent of a compound that is named as a salt.

What was measured:
[1] = dissolution of the 11β-aminoester salts in aqueous acid (Table 5 and Examples 101, 225-229); type: physicochemical; conditions: for concentration of aqueous solution of the citrate: citric acid monohydrate in water, filtered solution
Summary of the method: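 11β-Aminoester free base combined with 1 molar part of acid (citric acid as monohydrate) in water, with extra acid or prior ethanol co-evaporation in some methods. Solution made up to set weight, undissolved base collected and weighed to calculate dissolved amount. Solution pH measured.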

[2] = pH of the salt solutions; type: physicochemical
Summary of the method: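 Aminoester free base mixed with 1 molar part acid in water, stirred or shaken, with extra acid or ethanol evaporation in some methods, then made up with water to set weight. Undissolved base collected and weighed to calculate dissolved base; solution membrane-filtered and pH measured.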

[3] = aqueous solution of the citrate, filtered, 9.5-10 mg/ml
[4] = method A: clear solution, 1 molar part acid, made up with water to WT. of solution 10 g, except Ex. 121 and 150: 12, 123: 12.3, 124: 7.5, 129: 10.3, 135 and 139: 8.95, 164: 10.35, 170: 10.4, 181: 10.04, 187: 9.5, 210: 10.2, 221: 15 g
[5] = aqueous solution of the salt, Table 5
[6] = method D: 1 molar part acid, undissolved material weighed, WT. of solution 10 g, except Ex. 136: 8.95, 140: 9.52, 165 and 167: 10.1, 190 and 198: 9.8, 191: 8.9, 194: 6.6, 204: 10.09, 219: 10.6 g
[7] = method B: further acid added, undissolved material weighed, WT. of solution 10 g, except Ex. 130 and 141: 9.2, 142: 9.23, 143, 144, 189 and 199: 9.8, 149: 10.6, 153: 7.9, 162 and 188: 9.5, 163: 68, 166: 10.4, 168: 10.7, 169: 10.9, 183: 8.05, 184 and 201: 9.83, 185: 7.1, 186: 9.3, 192: 10.07, 193: 6.4, 195: 6.8, 196: 7, 197: 7.2, 200: 10.1, 206: 15 g
[8] = method C: ethanol evaporated, residue in water, undissolved material weighed, WT. of solution Ex. 118: 10, 120: 10.4, 148: 9.54, 152: 5.6, 154: 9.1, 155: 8.77, 156: 9.06, 157: 9.5, 158: 9.38, 159: 9.17, 179: 9.65, 180: 11.7, 182: 4.9, 202: 12.05, 213: 12, 214: 11.5, 215: 11.1, 216: 11.6, 217: 12.1 g

Q: Which “concentration of aqueous solution of the citrate” value [1] does the source give for CC(=O)[C@H]1CC[C@H]2[C@@H]3CC[C@H]4C[C@H](O)CC[C@@H]4[C@H]3[C@@H](OC(=O)CN3CCC(C)CC3)C[C@]12C [Example 229 citrate salt] here?
A: 10000 µg/mL

Q: And the pH [2, 3]?
A: 3.73

Q: For CCCN(C)CC(=O)O[C@H]1C[C@]2(C)[C@@H](C(C)=O)CC[C@H]2[C@@H]2CC[C@H]3C[C@H](O)CC[C@]3(C)[C@H]21 [Example 117], which Dissolved aminoester [1, 4] is on record?
A: 100 mg

Q: And the pH [2, 5]?
A: 3.4

Q: Which Dissolved aminoester [1, 6] does the source give for CC(=O)[C@H]1CC[C@H]2[C@@H]3CC[C@H]4C[C@H](O)CC[C@]4(C)[C@H]3[C@@H](OC(=O)CNC(C)CC(C)C)C[C@]12C (stereo partly shown) [Example 140] here?
A: 80.7 mg

Q: And the pH [2, 5]?
A: 3.59

Q: For CCCN(CCC)CC(=O)O[C@H]1C[C@]2(C)[C@@H](C(C)=O)CC[C@H]2[C@@H]2CC[C@H]3C[C@H](O)CC[C@]3(C)[C@H]21 [Example 219], which Dissolved aminoester [1, 6] is on record?
A: 106 mg

Q: And the pH [2, 5]?
A: 3.77

Q: Which Dissolved aminoester [1, 6] does the source give for C=CCN(C)CC(=O)O[C@H]1C[C@]2(C)[C@@H](C(C)=O)CC[C@H]2[C@@H]2CC[C@H]3C[C@H](O)CC[C@]3(C)[C@H]21 [Example 191] here?
A: 86.1 mg

Q: What about the pH [2, 5] of the same compound?
A: 3.20

Q: With CCN(CC)CC(=O)O[C@H]1C[C@]2(C)[C@@H](C(C)=O)CC[C@H]2[C@@H]2C[C@@H](C)[C@H]3C[C@H](O)CC[C@]3(C)[C@H]21 [Example 171] as the compound, how does the Dissolved aminoester [1, 4] read?
A: 100 mg

Q: And the pH [2, 5]?
A: 3.4

Q: What does the source list for CC(=O)[C@H]1CC[C@H]2[C@@H]3CC[C@H]4C[C@H](O)CC[C@]4(C)[C@H]3[C@@H](OC(=O)CNC34CC5CC(CC(C5)C3)C4)C[C@]12C [Example 146]?
A: Dissolved aminoester [1, 7]: 86 mg; pH [2, 5]: 2.92

Q: Which Dissolved aminoester [1, 4] does the source give for CCN(CC)CC(=O)O[C@H]1C[C@]2(C)[C@@H](C(C)=O)CC[C@H]2[C@@H]2CC[C@H]3C[C@](C)(O)CC[C@]3(C)[C@H]21 [Example 131] here?
A: 100 mg

Q: What about the pH [2, 5] of the same compound?
A: 3.55

Q: Which results are given for CCC(C)CN(C)CC(=O)O[C@H]1C[C@]2(C)[C@@H](C(C)=O)CC[C@H]2[C@@H]2CC[C@H]3C[C@H](O)CC[C@]3(C)[C@H]21 (stereo partly shown) [Example 186]?
A: Dissolved aminoester [1, 7]: 75 mg; pH [2, 5]: 2.85

Q: For CCCN(CCC)CC(=O)O[C@H]1C[C@]2(C)[C@@H](C(C)=O)CC[C@H]2[C@@H]2CC[C@H]3C[C@H](O)CC[C@]3(C)[C@H]21 [Example 212], which Dissolved aminoester ([1]; method E: as C with further acid, WT. of solution Ex. 160: 6.12, 161: 7.8, 203: 12.7, 212: 12.125, 220: 10 g) is on record?
A: 73 mg

Q: And the pH [2, 5]?
A: 3.6

Q: Which Dissolved aminoester [1, 7] does the source give for CC(=O)[C@H]1CC[C@H]2[C@@H]3CC[C@H]4C[C@H](O)CC[C@]4(C)[C@H]3[C@@H](OC(=O)CN(C)C(C)(C)C)C[C@]12C [Example 201] here?
A: 98.3 mg

Q: And the pH [2, 5]?
A: 3.12

Q: With C=CCN(CC=C)CC(=O)O[C@H]1C[C@]2(C)[C@@H](C(C)=O)CC[C@H]2[C@@H]2CC[C@H]3C[C@H](O)CC[C@]3(C)[C@H]21 [Example 118] as the compound, how does the Dissolved aminoester [1, 8] read?
A: 38 mg

Q: What about the pH [2, 5] of the same compound?
A: 2.55

Q: Which results are given for CC(=O)[C@H]1CC[C@H]2[C@@H]3CC[C@H]4C[C@H](O)CC[C@]4(C)[C@H]3[C@@H](OC(=O)CN3CCCCC3)C[C@]12C [Example 156]?
A: Dissolved aminoester [1, 8]: 90.3 mg; pH [2, 5]: 3.52

Q: Which results are given for CCCCN(C)CC(=O)O[C@H]1C[C@]2(C)[C@@H](C(C)=O)CC[C@H]2[C@@H]2CC[C@H]3C[C@H](O)CC[C@@H]3[C@H]21 [Example 228 citrate salt]?
A: concentration of aqueous solution of the citrate [1]: 10000 µg/mL; pH [2, 3]: 3.77
